Values of other authors in patent publication US20260237528A1, “DRUG COMBINATIONS SCREENING” (Hoffmann-La Roche Inc., priority 2023, published 2026).

System: tumour growth
Conditions: tested alone

| SMILES | anti-tumour activity |
| --- | --- |
| N=C(N)c1ccc(OCCCCCOc2ccc(C(=N)N)cc2)cc1 [pentamidine] | Neither of these drugs showed any anti-tumour activity when tested alone |
| CN(C)CCCN1c2ccccc2Sc2ccc(Cl)cc21 [chlorpromazine] | Neither of these drugs showed any anti-tumour activity when tested alone |
